Measurements reported in ChEMBL document CHEMBL4406814, “Furocoumarins as multi-target agents in the treatment of cystic fibrosis” (Eur J Med Chem, 2019).

Key:
Type in all cases: cell-based
[1] = Inhibition of TNF-alpha induced NFkappaB in human IB31 cells assessed as reduction in IL-8 mRNA expression preincubated for 5 hrs followed by TNF-alpha stimulation measured after 24 hrs by RT-qPCR analysis; details: IB3-1
IB3-1 [2] = test: Inhibition of TNF-alpha induced NFkappaB in human IB3-1 cells assessed as reduction in IL-8 mRNA expression at 10 uM preincubated for 5 hrs followed by TNF-alpha stimulation measured after 24 hrs by RT-qPCR analysis relative to control
IB3-1 [3] = test: Inhibition of TNF-alpha induced NFkappaB in human IB3-1 cells assessed as reduction in IL-8 mRNA expression at 1 uM preincubated for 5 hrs followed by TNF-alpha stimulation measured after 24 hrs by RT-qPCR analysis relative to control

Compound | IC50 [1] [µM] | inhibition (IB3-1 [2]) [%] | inhibition (IB3-1 [3]) [%]
Cc1cc2c(C(C)C)cc(=O)oc2c2c(C)coc12 | 18.9 | – | –
Cc1coc2c1c(C)cc1oc(=O)cc(C)c12 | – | 52 | 73
CCc1cc2c(C(C)C)cc(=O)oc2c2c(C)coc12 | 7.4 | – | –
Cc1cc(=O)oc2c1ccc1oc(CN)cc12 | – | 83 | 55
CCc1cc2c(C)cc(=O)oc2c2c(C)coc12 | 24 | – | –
Cc1cc2c(CO)cc(=O)oc2c2c(C)coc12 | – | 52 | 51
Cc1cc2c(C)cc3oc(=O)cc(C)c3c2o1 | – | 81 | 68
CCCc1cc(=O)oc2c1cc(C)c1occ(C)c12 | 21.9 | – | –
Cc1oc2c(c(C)cc3oc(=O)cc(C)c32)c1C | – | 47 | 66
CCc1cc(=O)oc2c1cc(CC)c1occ(C)c12 | 17.8 | – | –
CCc1cc(=O)oc2c1cc(C)c1occ(C)c12 | 8 | – | –
Cc1oc2c(C)cc3c(C)cc(=O)oc3c2c1C | – | 56 | 57
CCCc1cc(=O)oc2c1cc(CC)c1occ(C)c12 | 19.8 | – | –
